Measured values from patent publication US20250205260A1, “ADJUNCTIVE TREATMENT OF MYCOBACTERIAL DISEASES” (UNIVERSITY OF SOUTHERN CALIFORNIA, priority 2022, published 2025).
Values after ≈ are worked out from the molar mass of the structure shown. Read-outs that look alike come from different tables or passages of the source.

Key:
M. tuberculosis biofilm = M. tuberculosis biofilm formation inhibition (crystal violet staining); type: cell-based, Mycobacterium tuberculosis; details: for overall activity against M. tuberculosis: biofilm inhibition, normal growth inhibition and antibiotic synergism assays, preliminary results
Experimental: FIG. 1A-D. Anti-M. tuberculosis biofilm activity of 6-treAz (6-azido-6-deoxy-D-trehalose). The effects of various concentrations of 6-treAz treatment on M. tuberculosis biofilms were monitored by crystal violet (CV) staining assay (A and B). […] The effect of 6-treAz on TreS mediated maltose production. Y-axis is the amount of maltose produced (D).
Planktonic growth and biofilm assays. Evaluation of planktonic growth and biofilm formation inhibition for M. smegmatis was carried out as previously reported for other trehalose analogues (Carbohydr. Res. 2017, 450, 60-66). Evaluation of planktonic growth and biofilm formation inhibition for M. tuberculosis was carried out as previously reported for 6-TreAz (Nat. Commun., 2019, 2928-2928).

M. smegmatis = details: cited from earlier work
M. smegmatis biofilm [1] = experiment: M. smegmatis biofilm formation inhibition; type: cell-based, Mycobacterium smegmatis
M. tuberculosis [2] = details: cited from earlier work
[3] = test system: H37Rv lab strain (M. tuberculosis); type: cell-based, Mycobacterium tuberculosis; details: for IC95 2-treNH2: antibiotic in combination with 2-treNH2; for IC95 4-treNH2: antibiotic in combination with 4-treNH2; for IC95 6-treNH2: antibiotic in combination with 6-treNH2
M. tuberculosis [4] = experiment: M. tuberculosis planktonic growth inhibition; type: cell-based, Mycobacterium tuberculosis
[5] = test system: M. tuberculosis trehalose catalytic shift (metabolome); experiment: Metabolomics profiling / trehalose catalytic shift; type: cell-based, Mycobacterium tuberculosis; details: M. tuberculosis biofilm, trehalose accumulation, depletion of maltose, glucose-P, sedoheptulose-P
[6] = target: TreS (trehalose synthase) (Mycobacterium tuberculosis, UniProt P9WQ19); experiment: In vitro TreS assay (maltose production, LC-MS); type: biochemical, M. tuberculosis; details: 100 μM compound, in vitro TreS enzyme reaction
TreS (trehalose synthase), sequence (P9WQ19 whole entry, looked up): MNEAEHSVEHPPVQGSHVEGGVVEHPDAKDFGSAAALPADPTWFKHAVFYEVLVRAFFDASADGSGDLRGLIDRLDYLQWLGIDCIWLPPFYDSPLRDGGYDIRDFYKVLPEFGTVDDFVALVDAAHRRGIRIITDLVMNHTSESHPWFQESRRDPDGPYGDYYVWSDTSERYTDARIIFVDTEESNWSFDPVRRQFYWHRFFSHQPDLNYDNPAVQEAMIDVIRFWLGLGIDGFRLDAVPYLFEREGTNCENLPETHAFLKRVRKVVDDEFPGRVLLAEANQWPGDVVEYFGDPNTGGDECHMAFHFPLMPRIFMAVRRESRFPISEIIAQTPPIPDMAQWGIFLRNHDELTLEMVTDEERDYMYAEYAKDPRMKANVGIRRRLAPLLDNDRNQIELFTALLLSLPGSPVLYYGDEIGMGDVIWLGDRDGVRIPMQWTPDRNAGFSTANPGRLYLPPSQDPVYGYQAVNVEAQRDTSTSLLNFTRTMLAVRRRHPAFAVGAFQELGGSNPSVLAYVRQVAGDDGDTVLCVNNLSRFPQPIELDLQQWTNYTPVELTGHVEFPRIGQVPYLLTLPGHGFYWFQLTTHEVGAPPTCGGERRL
Experimental: In vitro TreS assay. TreS activity was measured using a 100 μL in vitro enzyme reaction containing 40 mM MOPS (pH 7.0), 10 mM trehalose, and 20 ng of purified TreS enzyme in the presence or absence of 6-treAz or validamycin A (a known TreS inhibitor). The reaction was initiated by adding TreS enzyme, incubated at 37° C., and then quenched by heating and adding acetonitrile containing 0.2% formic acid. After centrifugation, supernatants were used for LC-MS to quantify maltose product.

M. aurum = details: cited from earlier work
M. smegmatis biofilm [7] = details: cited from earlier work
[8] = M. tuberculosis IC95 shift assay

[N-]=[N+]=N[C@H]1[C@@H](O[C@H]2O[C@H](CO)[C@@H](O)[C@H](O)[C@H]2O)O[C@H](CO)[C@@H](O)[C@@H]1O [2-TreAz, (2R,3R,4S,5S,6R)-2-(((2R,3R,4R,5S,6R)-3-azido-4,5-dihydroxy-6-(hydroxymethyl)tetrahydro-2H-pyran-2-yl)oxy)-6-(hydroxymethyl)tetrahydro-2H-pyran-3,4,5-triol]
overall activity against M. tuberculosis (M. tuberculosis biofilm): top candidate | inhibition of M. smegmatis planktonic growth (previous research) (M. smegmatis): exhibited planktonic growth inhibition

N[C@H]1[C@@H](O[C@H]2O[C@H](CO)[C@@H](O)[C@H](O)[C@H]2O)O[C@H](CO)[C@@H](O)[C@@H]1O [2-TreNH2, (2R,3R,4S,5S,6R)-2-(((2R,3R,4R,5S,6R)-3-amino-4,5-dihydroxy-6-(hydroxymethyl)tetrahydro-2H-pyran-2-yl)oxy)-6-(hydroxymethyl)tetrahydro-2H-pyran-3,4,5-triol]
inhibition of M. smegmatis biofilm formation (M. smegmatis biofilm [1]): inhibit | inhibition of M. tuberculosis planktonic growth (previous research) (M. tuberculosis [2]): exhibited inhibition | antimycobacterial synergy with TB antibiotics ([3]; H37Rv, INH, RIF or BDQ, […]): antimicrobial synergy against H37Rv level similar to that of ΔtreS | effect of co-treatment on IC95 values of isoniazid (INH) or rifampicin (RIF) [3, 8]: significantly reduced | reduction of IC95 value of bedaquiline (BDQ) by co-treatment [3, 8]: not | inhibition of M. tuberculosis biofilm formation (M. tuberculosis biofilm): inhibit

[N-]=[N+]=N[C@@H]1[C@@H](O[C@H]2O[C@H](CO)[C@@H](O)[C@H](O)[C@H]2O)O[C@H](CO)[C@@H](O)[C@@H]1O [2-epi-TreAz, (2R,3R,4S,5S,6R)-2-(((2R,3S,4R,5S,6R)-3-azido-4,5-dihydroxy-6-(hydroxymethyl)tetrahydro-2H-pyran-2-yl)oxy)-6-(hydroxymethyl)tetrahydro-2H-pyran-3,4,5-triol]
inhibition of M. smegmatis biofilm formation (M. smegmatis biofilm [1]): selectively inhibits | inhibition of M. smegmatis biofilm formation (M. smegmatis biofilm [1]; at 1 mM): selectively blocks | inhibition of M. tuberculosis planktonic growth (M. tuberculosis [4]): can inhibit | inhibition of M. tuberculosis planktonic growth (M. tuberculosis [4]; at 1 mM): completely blocks | inhibition of M. tuberculosis planktonic growth (M. tuberculosis [4]; listed as Epi-2-TreAz): completely inhibits | inhibition of M. tuberculosis biofilm formation (M. tuberculosis biofilm): can inhibit | inhibition of M. tuberculosis biofilm formation (M. tuberculosis biofilm; at 1 mM): completely blocks | overall activity against M. tuberculosis (M. tuberculosis biofilm): most potent | inhibition of M. tuberculosis biofilm formation (M. tuberculosis biofilm; listed as Epi-2-TreAz): completely inhibits

N[C@@H]1[C@@H](O[C@H]2O[C@H](CO)[C@@H](O)[C@H](O)[C@H]2O)O[C@H](CO)[C@@H](O)[C@@H]1O [2-epi-TreNH2, (2R,3R,4S,5S,6R)-2-(((2R,3S,4R,5S,6R)-3-amino-4,5-dihydroxy-6-(hydroxymethyl)tetrahydro-2H-pyran-2-yl)oxy)-6-(hydroxymethyl)tetrahydro-2H-pyran-3,4,5-triol]
inhibition of M. smegmatis biofilm formation (M. smegmatis biofilm [1]): no inhibitory effects | inhibition of M. tuberculosis planktonic growth (M. tuberculosis [4]): no inhibitory effects | inhibition of M. tuberculosis biofilm formation (M. tuberculosis biofilm): do not

[N-]=[N+]=N[C@@H]1[C@@H](O)[C@@H](O[C@H]2O[C@H](CO)[C@@H](O)[C@H](O)[C@H]2O)O[C@H](CO)[C@H]1O [3-TreAz, (2R,3R,4S,5S,6R)-2-(((2R,3R,4S,5S,6R)-4-azido-3,5-dihydroxy-6-(hydroxymethyl)tetrahydro-2H-pyran-2-yl)oxy)-6-(hydroxymethyl)tetrahydro-2H-pyran-3,4,5-triol]
inhibition of M. smegmatis planktonic growth (previous research) (M. smegmatis): did not exhibit inhibition

N[C@@H]1[C@@H](O)[C@@H](O[C@H]2O[C@H](CO)[C@@H](O)[C@H](O)[C@H]2O)O[C@H](CO)[C@H]1O [3-TreNH2, (2R,3R,4S,5S,6R)-2-(((2R,3R,4S,5S,6R)-4-amino-3,5-dihydroxy-6-(hydroxymethyl)tetrahydro-2H-pyran-2-yl)oxy)-6-(hydroxymethyl)tetrahydro-2H-pyran-3,4,5-triol]
inhibition of M. tuberculosis biofilm formation (M. tuberculosis biofilm): moderate inhibitor

[N-]=[N+]=N[C@H]1[C@H](O)[C@@H](O)[C@@H](O[C@H]2O[C@H](CO)[C@@H](O)[C@H](O)[C@H]2O)O[C@@H]1CO [4-TreAz, (2R,3R,4S,5S,6R)-2-(((2R,3R,4S,5S,6S)-5-azido-3,4-dihydroxy-6-(hydroxymethyl)tetrahydro-2H-pyran-2-yl)oxy)-6-(hydroxymethyl)tetrahydro-2H-pyran-3,4,5-triol]
overall activity against M. smegmatis (M. smegmatis biofilm [1]; biofilm inhibition, normal growth inhibition and antibiotic synergism assays): did not show activity | overall activity against M. tuberculosis (M. tuberculosis biofilm): did not show activity | inhibition of M. smegmatis planktonic growth (previous research) (M. smegmatis): did not exhibit inhibition

N[C@H]1[C@H](O)[C@@H](O)[C@@H](O[C@H]2O[C@H](CO)[C@@H](O)[C@H](O)[C@H]2O)O[C@@H]1CO [4-TreNH2, (2R,3R,4S,5S,6R)-2-(((2R,3R,4S,5S,6S)-5-amino-3,4-dihydroxy-6-(hydroxymethyl)tetrahydro-2H-pyran-2-yl)oxy)-6-(hydroxymethyl)tetrahydro-2H-pyran-3,4,5-triol]
inhibition of M. smegmatis biofilm formation (M. smegmatis biofilm [1]): did not exhibit activity | inhibition of M. tuberculosis planktonic growth (M. tuberculosis [4]): inhibits | inhibition of M. tuberculosis biofilm formation (M. tuberculosis biofilm): inhibit | inhibition of M. smegmatis planktonic growth (previous research) (M. smegmatis): did not exhibit inhibition

[N-]=[N+]=N[C@@H]1[C@H](O)[C@@H](O)[C@@H](O[C@H]2O[C@H](CO)[C@@H](O)[C@H](O)[C@H]2O)O[C@@H]1CO [4-epi-TreAz, (2R,3R,4S,5S,6R)-2-(((2R,3R,4S,5R,6S)-5-azido-3,4-dihydroxy-6-(hydroxymethyl)tetrahydro-2H-pyran-2-yl)oxy)-6-(hydroxymethyl)tetrahydro-2H-pyran-3,4,5-triol]
inhibition of M. smegmatis biofilm formation (M. smegmatis biofilm [1]): no inhibitory effects | inhibition of M. tuberculosis planktonic growth (M. tuberculosis [4]): no inhibitory effects | inhibition of M. tuberculosis biofilm formation (M. tuberculosis biofilm): do not

N[C@@H]1[C@H](O)[C@@H](O)[C@@H](O[C@H]2O[C@H](CO)[C@@H](O)[C@H](O)[C@H]2O)O[C@@H]1CO [4-epi-TreNH2, (2R,3R,4S,5S,6R)-2-(((2R,3R,4S,5R,6S)-5-amino-3,4-dihydroxy-6-(hydroxymethyl)tetrahydro-2H-pyran-2-yl)oxy)-6-(hydroxymethyl)tetrahydro-2H-pyran-3,4,5-triol]
inhibition of M. smegmatis biofilm formation (M. smegmatis biofilm [1]): no inhibitory effects | inhibition of M. tuberculosis planktonic growth (M. tuberculosis [4]): no inhibitory effects | inhibition of M. tuberculosis biofilm formation (M. tuberculosis biofilm): do not

[N-]=[N+]=NC[C@H]1O[C@H](O[C@H]2O[C@H](CO)[C@@H](O)[C@H](O)[C@H]2O)[C@H](O)[C@@H](O)[C@@H]1O [6-TreAz, (2R,3S,4S,5R,6R)-2-(azidomethyl)-6-(((2R,3R,4S,5S,6R)-3,4,5-trihydroxy-6-(hydroxymethyl)tetrahydro-2H-pyran-2-yl)oxy)tetrahydro-2H-pyran-3,4,5-triol]
inhibition of the trehalose catalytic shift [5]: blocked | inhibition of the trehalose catalytic shift ([5]; listed as 6-treAz): dose-dependent inhibition | inhibition of M. tuberculosis planktonic growth (previous research) (M. tuberculosis [2]): inhibit growth | inhibition of M. tuberculosis planktonic growth (M. tuberculosis [4]): no discernible effects | TreS mediated maltose production [6]: abolished | inhibition of M. tuberculosis biofilm formation (M. tuberculosis biofilm): selective inhibitory activity | concentration that significantly interfered with M. tuberculosis biofilm formation (M. tuberculosis biofilm; WT biofilm culture): at least 100 M | inhibition of M. aurum growth (previous research) (M. aurum): inhibit growth | inhibition of M. smegmatis biofilm formation (previously known) (M. smegmatis biofilm [7]): known to inhibit | inhibition of M. smegmatis planktonic growth (previous research) (M. smegmatis): inhibit growth

NC[C@H]1O[C@H](O[C@H]2O[C@H](CO)[C@@H](O)[C@H](O)[C@H]2O)[C@H](O)[C@@H](O)[C@@H]1O [6-TreNH2, (2R,3S,4S,5R,6R)-2-(aminomethyl)-6-(((2R,3R,4S,5S,6R)-3,4,5-trihydroxy-6-(hydroxymethyl)tetrahydro-2H-pyran-2-yl)oxy)tetrahydro-2H-pyran-3,4,5-triol]
inhibition of M. tuberculosis planktonic growth (previous research) (M. tuberculosis [2]): did not exhibit inhibition | inhibition of M. tuberculosis planktonic growth (M. tuberculosis [4]): no inhibitory effect | inhibition of M. tuberculosis biofilm formation (M. tuberculosis biofilm): no inhibitory effect

COc1nc2ccc(Br)cc2cc1[C@@H](c1ccccc1)[C@@](O)(CCN(C)C)c1cccc2ccccc12 [BDQ, bedaquiline]
IC95 WT [3]: 0.59 µg/mL (≈ 1.06 µM) | IC95 2-treNH2 ([3]; H37Rv): 0.78 µg/mL | IC95 4-treNH2 ([3]; H37Rv): 0.39 µg/mL | IC95 6-treNH2 ([3]; H37Rv): 0.57 µg/mL

NNC(=O)c1ccncc1 [INH, isoniazid]
IC95 WT [3]: 0.28 µg/mL (≈ 2.04 µM) | IC95 2-treNH2 ([3]; H37Rv): 0.21 µg/mL | IC95 4-treNH2 ([3]; H37Rv): 0.44 µg/mL | IC95 6-treNH2 ([3]; H37Rv): 0.33 µg/mL

CO[C@H]1/C=C/O[C@@]2(C)Oc3c(C)c(O)c4c(O)c(c(/C=N/N5CCN(C)CC5)c(O)c4c3C2=O)NC(=O)/C(C)=C\C=C\[C@H](C)[C@H](O)[C@@H](C)[C@@H](O)[C@@H](C)[C@H](OC(C)=O)[C@@H]1C [RIF, rifampicin]
IC95 WT [3]: 0.18 µg/mL (≈ 0.219 µM) | IC95 2-treNH2 ([3]; H37Rv): 0.09 µg/mL | IC95 4-treNH2 ([3]; H37Rv): 0.14 µg/mL | IC95 6-treNH2 ([3]; H37Rv): 0.24 µg/mL
